Converted amounts (≈) assume the structure as drawn. Where two headings read alike, the source gives them in different places.
Legend:
Format in all cases: cell-based
[1] = system: Candida krusei; experiment: Antifungal broth microdilution MIC (50% growth inhibition) and MFC; settings: Pichia kudriavzevii; for MIC: read-out: MIC
Outline: (§1)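 Read-out was the lowest concentration inhibiting fungal growth by 50% (MIC) or reducing it by 99.9% after subculture onto YPD agar (MFC). Testing followed CLSI broth microdilution on clinical isolates at 35 °C, 24 h for Candida and 48 h for Cryptococcus.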

[2] = system: Candida albicans; experiment: as above; settings: Candida albicans; for MIC: read-out: MIC
Outline: (§2)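 Clinical isolates were tested in triplicate by CLSI broth microdilution over 128–0.06 μg/mL. MIC was the lowest concentration giving 50% growth inhibition after 35 °C incubation, 24 h for Candida, 48 h for Cryptococcus. For MFC, wells without growth were plated on YPD agar, 37 °C for 24 hours; MFC meant 99.9% growth reduction.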

[3] = system: Candida glabrata; experiment: as above; settings: Nakaseomyces glabratus; for MIC: read-out: MIC
Outline: as §1

[4] = system: Candida auris; experiment: as above; settings: for MIC: read-out: MIC
Outline: as §2

[5] = system: Candida tropicalis; experiment: as above; settings: Candida tropicalis, ATCC1369, C. tropicalis ATCC 1369
Outline: as §1

[6] = system: Lactobacillus casei ATCC-334; experiment: Broth microdilution MIC against normal human microbiota; settings: Lacticaseibacillus casei, ATCC334; Lactobacillus casei ATCC-334; read-out: MIC
Outline: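 Inoculum of about 5 x 10^5 CFU/mL in MRS broth, with compounds serially diluted in triplicate. MICs read after 48 hours at 37 °C; three independent repeats.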

[7] = ATCC10231, C. albicans ATCC 10231
[8] = ATCC66032, C. glabrata ATCC 66032

In the case of `Cc1nc(-c2ccc(-c3ccccc3)cc2)sc1-c1nnc(N[C@@H]2CCCC[C@@H]2N)o1` (relative stereo) [Compound 17, cis-N-{5-[2-((1,1’-Biphenyl)-4-yl)-4-methylthiazol-5-yl]-1,3,4-oxadiazol-2-yl}cyclo-hexane-1,2-diamine], the MIC ([1]; ATCC34135, C. krusei ATCC 34135) is reported as 1 mg/L (≈ 2.32 µM), the MFC ([1]; C. krusei CAB 396420) is reported as over 64 mg/L and the MIC ([1]; C. krusei CAB 396420) is reported as 1 mg/L (≈ 2.32 µM). It also gave an MFC [2, 7] of over 64 mg/L, an MIC [2, 7] of 4 mg/L (≈ 9.27 µM) and an MIC ([2]; C. albicans NR-29448 (fluconazole-resistant)) of 2 mg/L (≈ 4.63 µM). The MIC ([2]; C. albicans SS5314 (wild-type)) was 1 mg/L (≈ 2.32 µM), the MFC ([2]; C. albicans NR-29448) was over 64 mg/L and the MFC [3, 8] was over 64 mg/L. The MIC [3, 8] was 0.5 mg/L (≈ 1.16 µM), the MFC ([3]; C. glabrata ATCC MYA-2950) was over 64 mg/L and the MIC ([3]; C. glabrata ATCC MYA-2950) was 0.5 mg/L (≈ 1.16 µM). For the same molecule, the MFC ([4]; Candida auris 390) was over 64 mg/L, the MIC ([4]; Candidozyma auris, C. auris 381) was 1 mg/L (≈ 2.32 µM) and the MIC ([4]; Candidozyma auris, C. auris 382) was 2 mg/L (≈ 4.63 µM). For the same molecule, the MIC ([4]; Candidozyma auris, C. auris 383) was 1 mg/L (≈ 2.32 µM), the MIC ([4]; Candidozyma auris, C. auris 384) was 1 mg/L (≈ 2.32 µM) and the MIC ([4]; Candidozyma auris, C. auris 385) was 2 mg/L (≈ 4.63 µM). It also gave an MIC ([4]; Candidozyma auris, C. auris 386) of 1 mg/L (≈ 2.32 µM), an MIC ([4]; Candidozyma auris, C. auris 387) of 2 mg/L (≈ 4.63 µM) and an MIC ([4]; Candidozyma auris, C. auris 388) of 1 mg/L (≈ 2.32 µM). It also gave an MIC ([4]; Candidozyma auris, C. auris 389) of 2 mg/L (≈ 4.63 µM), an MIC ([4]; Candidozyma auris, C. auris 390) of 1 mg/L (≈ 2.32 µM) and an MFC ([4]; Candidozyma auris, Candida auris 389, read-out: MFC) of over 64 mg/L. The MFC [5] was over 64 mg/L, the MIC ([5]; read-out: MIC) was 4 mg/L (≈ 9.27 µM) and the MIC [6] was 128 mg/L (≈ 297 µM).

Reference: article PMC8568133, “Evaluation of bisphenylthiazoles as a promising class for combating multidrug-resistant fungal infections” (PLoS ONE, 2021)
